ChEMBL document CHEMBL2203210, “SAR and in vivo evaluation of 4-aryl-2-aminoalkylpyrimidines as potent and selective Janus kinase 2 (JAK2) inhibitors” (Bioorg Med Chem Lett, 2012)
Values after ≈ are worked out from the molar mass of the structure shown.

Columns and labels:
[1] = biological target: T1, Tyrosine-protein kinase JAK2 (Homo sapiens, UniProt O60674)
Description: Inhibition of JAK2 in HEL 92.1.7 cells assessed as inhibition of STAT1 phosphorylation

[2] = biological target: T2, Tyrosine-protein kinase JAK3 (Homo sapiens, UniProt P52333)
T2 sequence (P52333 whole entry): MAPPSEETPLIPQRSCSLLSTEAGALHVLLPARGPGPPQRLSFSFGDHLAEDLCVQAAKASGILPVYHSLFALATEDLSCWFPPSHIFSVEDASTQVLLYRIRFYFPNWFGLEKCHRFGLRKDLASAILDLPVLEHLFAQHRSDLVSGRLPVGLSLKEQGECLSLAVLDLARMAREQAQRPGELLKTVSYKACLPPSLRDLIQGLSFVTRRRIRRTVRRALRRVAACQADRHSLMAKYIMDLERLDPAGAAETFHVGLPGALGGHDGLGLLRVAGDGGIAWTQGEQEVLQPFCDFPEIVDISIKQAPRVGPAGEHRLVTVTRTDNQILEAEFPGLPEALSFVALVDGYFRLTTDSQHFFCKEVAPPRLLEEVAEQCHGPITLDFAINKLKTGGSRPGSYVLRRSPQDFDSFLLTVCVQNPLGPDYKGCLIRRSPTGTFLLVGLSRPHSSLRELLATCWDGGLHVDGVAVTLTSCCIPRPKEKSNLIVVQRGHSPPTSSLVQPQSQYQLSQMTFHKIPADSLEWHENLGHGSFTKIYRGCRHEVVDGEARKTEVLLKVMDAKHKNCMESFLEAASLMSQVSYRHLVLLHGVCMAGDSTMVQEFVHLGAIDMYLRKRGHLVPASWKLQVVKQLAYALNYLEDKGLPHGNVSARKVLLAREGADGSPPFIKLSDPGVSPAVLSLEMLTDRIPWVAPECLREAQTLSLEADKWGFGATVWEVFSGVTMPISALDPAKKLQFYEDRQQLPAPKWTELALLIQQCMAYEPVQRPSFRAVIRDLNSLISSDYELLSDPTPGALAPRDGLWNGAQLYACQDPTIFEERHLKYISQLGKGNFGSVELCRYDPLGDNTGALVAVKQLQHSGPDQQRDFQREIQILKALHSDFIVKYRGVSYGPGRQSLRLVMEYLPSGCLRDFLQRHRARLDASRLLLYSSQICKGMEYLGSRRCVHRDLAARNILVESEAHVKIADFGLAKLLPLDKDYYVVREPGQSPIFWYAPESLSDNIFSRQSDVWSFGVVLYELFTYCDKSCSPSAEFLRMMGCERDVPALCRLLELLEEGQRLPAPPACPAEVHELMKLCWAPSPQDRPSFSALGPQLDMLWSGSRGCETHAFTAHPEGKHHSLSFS

[3] = biological target: T1, Tyrosine-protein kinase JAK2; remark: listed apart in the source
[4] = biological target: T1, Tyrosine-protein kinase JAK2; remark: listed apart in the source
Description: Inhibition of JAK2 in HEL 92.1.7 cells assessed as inhibition of STAT3 phosphorylation

[5] = Kinetic solubility of the compound; type: physicochemical; conditions: read-out: Kinetic_solubility
[6] = Selectivity ratio of IC50 for JAK3 to IC50 for JAK2

T1 sequence (O60674 whole entry): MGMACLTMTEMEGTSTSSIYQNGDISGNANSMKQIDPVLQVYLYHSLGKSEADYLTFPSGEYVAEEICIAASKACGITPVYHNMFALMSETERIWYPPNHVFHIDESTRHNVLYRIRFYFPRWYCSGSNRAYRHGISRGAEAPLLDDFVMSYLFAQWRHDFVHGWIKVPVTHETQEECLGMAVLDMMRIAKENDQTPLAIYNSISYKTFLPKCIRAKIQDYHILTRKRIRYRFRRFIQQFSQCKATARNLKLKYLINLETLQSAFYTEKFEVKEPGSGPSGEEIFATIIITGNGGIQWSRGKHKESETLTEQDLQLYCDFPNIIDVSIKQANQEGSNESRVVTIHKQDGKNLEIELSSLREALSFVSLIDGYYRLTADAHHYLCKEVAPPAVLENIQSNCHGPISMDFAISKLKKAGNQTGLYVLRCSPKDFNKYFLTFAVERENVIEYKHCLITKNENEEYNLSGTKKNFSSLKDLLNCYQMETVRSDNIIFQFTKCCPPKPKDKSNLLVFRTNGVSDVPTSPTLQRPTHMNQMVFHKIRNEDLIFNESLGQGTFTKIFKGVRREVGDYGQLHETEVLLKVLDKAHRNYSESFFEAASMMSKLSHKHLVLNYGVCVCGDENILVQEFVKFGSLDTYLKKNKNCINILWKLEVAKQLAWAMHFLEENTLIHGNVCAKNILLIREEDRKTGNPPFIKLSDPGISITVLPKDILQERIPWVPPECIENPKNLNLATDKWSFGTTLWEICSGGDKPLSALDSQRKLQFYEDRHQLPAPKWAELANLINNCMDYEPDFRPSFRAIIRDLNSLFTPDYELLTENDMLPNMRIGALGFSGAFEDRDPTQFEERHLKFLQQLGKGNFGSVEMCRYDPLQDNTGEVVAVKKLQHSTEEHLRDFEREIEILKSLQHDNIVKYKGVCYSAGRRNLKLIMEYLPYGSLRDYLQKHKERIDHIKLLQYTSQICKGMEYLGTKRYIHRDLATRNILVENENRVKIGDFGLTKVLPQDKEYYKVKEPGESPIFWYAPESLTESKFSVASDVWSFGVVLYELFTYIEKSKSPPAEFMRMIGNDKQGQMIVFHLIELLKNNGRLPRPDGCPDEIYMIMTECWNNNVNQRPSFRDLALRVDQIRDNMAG

Row | Compound | IC50 [1] [nM] | IC50 [2] [nM] | IC50 [3] [nM] | IC50 [4] [nM] | solubility kinetic [5] [µM] | Ratio IC50 [6]
1 | O=C1CC[C@H](C(=O)Nc2ccc(-c3ccnc(Nc4ccc(N5CCOCC5)cc4)n3)cc2)N1 | > 30000 | 61.7 | 0.9 | – | – | –
2 | N[C@H](CO)C(=O)Nc1ccc(-c2ccnc(Nc3ccc(N4CCOCC4)cc3)n2)cc1 | 622 | 160 | 2.7 | 1390 | – | –
3 | CC(=O)Nc1ccc(-c2cc(Nc3ccc(N4CCOCC4)cc3)ncn2)cc1 | > 30000 | > 980 | > 980 | – | – | –
4 | CC(=O)Nc1ccc(-c2ccnc(Nc3cccc(NC(=O)c4ccccc4Cl)c3)n2)cc1 | > 30000 | > 980 | 6.9 | – | – | –
5 | CC(=O)Nc1ccc(-c2ccnc(Nc3cccc(N4CCCCC4)c3)n2)cc1 | 956 | > 980 | 6.5 | 1330 | – | –
6 | CC(=O)Nc1ccc(-c2ccnc(Nc3cccc(N4CCOCC4)c3)n2)cc1 | 615 | > 980 | 4.2 | 591 | – | –
7 | CC(=O)Nc1ccc(-c2nc(Nc3ccc(N4CCOCC4)cc3)ncc2C)cc1 | – | 105 | – | – | – | –
8 | CC(=O)Nc1ccc(-c2ccnc(NC3CCCC(NC(=O)c4c(Cl)cccc4Cl)C3)n2)cc1 (configuration not stated) | > 30000 | > 980 | > 980 | – | – | –
9 | CC(=O)Nc1ccc(-c2ccnc(Nc3cccc(NC(=O)c4c(Cl)cccc4Cl)c3)n2)cc1 | 763 | > 980 | 12.6 | 505 | – | –
10 | O=C(Nc1ccc(-c2ccnc(Nc3ccc(N4CCOCC4)cc3)n2)cc1)[C@H]1CCNC1 | > 30000 | 368 | 5.7 | – | – | –
11 | CC(=O)Nc1ccc(-c2ccnc(Nc3ccccc3)n2)cc1 | 1000 | 1150 | 12.8 | 1970 | 234 (≈ 71.2 µg/mL) | –

Second part, the molecule after the results:

Row | IC50 [1] [nM] | IC50 [2] [nM] | IC50 [3] [nM] | IC50 [4] [nM] | solubility kinetic [5] [µM] | Ratio IC50 [6] | Compound
12 | > 30000 | 5000 | 5000 | – | – | – | CC(=O)Nc1ccc(-c2ccnc(NCC3CN(C(=O)c4c(Cl)cccc4Cl)C3)n2)cc1
13 | 6490 | > 980 | 4.4 | – | – | – | CC(=O)Nc1ccc(-c2nc(Nc3ccc(N4CCOCC4)cc3)ncc2F)cc1
14 | 746 | 484 | 5.2 | 1050 | – | – | CN1CCC[C@@H]1C(=O)Nc1ccc(-c2ccnc(Nc3ccc(N4CCOCC4)cc3)n2)cc1
15 | 1430 | – | 9.1 | 2170 | – | – | CCN1CCC[C@@H]1C(=O)Nc1ccc(-c2ccnc(Nc3ccc(N4CCOCC4)cc3)n2)cc1
16 | – | > 980 | – | – | – | – | CC(=O)Nc1ccc(-c2ccnc(Nc3cccc(NC(=O)c4ccccc4)c3)n2)cc1
17 | 2700 | > 980 | 39.6 | – | – | – | CC(=O)Nc1ccc(-c2nc(Nc3ccc(N4CCOCC4)cc3)ncc2C(F)(F)F)cc1
18 | > 30000 | > 980 | 130 | – | – | – | CC(=O)Nc1ccc(-c2ccnc(Nc3cccc(NC(=O)c4c(Cl)cccc4Cl)n3)n2)cc1
19 | 1050 | 298 | 8.7 | 1510 | – | – | C[C@H](N)C(=O)Nc1ccc(-c2ccnc(Nc3ccc(N4CCOCC4)cc3)n2)cc1
20 | 8140 | > 5000 | 104 | – | 6.5 (≈ 2.98 µg/mL) | > 50 | CC(=O)Nc1ccc(-c2ccnc(NCCCNC(=O)c3c(Cl)cccc3Cl)n2)cc1
21 | 328 | 307 | 1.7 | 452 | – | – | C[C@@H](N)C(=O)Nc1ccc(-c2ccnc(Nc3ccc(N4CCOCC4)cc3)n2)cc1
22 | > 30000 | > 980 | > 980 | – | – | – | CC(=O)Nc1ccc(-c2cc(C)nc(Nc3ccc(N4CCOCC4)cc3)n2)cc1
23 | 975 | > 980 | – | 795 | – | > 250 | CC(=O)Nc1ccc(-c2ccnc(Nc3ccc(N4CCOCC4)cc3)n2)cc1
